Here are results for 25 compounds from patent US7169785B2, “Methods and compositions of novel triazine compounds” (Reddy US Therapeutics, Inc., priority 2001, dated 2007).

Test [1] deals with IL-6. Description: TNF-α-induced IL-6 production determined by IL-6 ELISA in HAEC. To be noted: HAEC. The class given is cell-based, human. As for the experimental part:
Human aortic endothelial cells (HAEC, Clonetics) were cultured according to manufacturer in growth medium (Clonetics): basal medium containing human epidermal growth factor, hydrocortisone, vascular endothelial growth factor, heparin binding growth factor-B, long R3-insulin-like growth factor-1, ascorbic acid, gentamicin/amphotericin and 5% FBS. These cell were allowed to reach at least 90% confluency before subjected to experimental treatments. Glycated human serum albumin (G-HSA) was from US Biologicals. Tumor necrosis factor α was from R&D Systems.
[…] All treatments, compound-added and controls were carried out in serum free media containing 0.2% albumin. Media from all conditions were collected and used for IL-6 ELISA.
(§1) IL-6 ELISA was carried out using human IL-6 DuoSet ELISA development kit as described by manufacturer (R&D Systems). Mouse anti-human Il-6 was used as the capture antibody (2 ug/ml) and biotinylated goat anti-human IL-6 (200 ng/ml) was used as the detection antibody. Culture media were incubated with capture antibody (in 96 well) for 2 h at room temperature. Wells were washed three times with wash buffer (0.05% tween-20 in phosphate buffered saline (PBS) pH 7.4) followed by incubation with detection antibody for 2 h at room temperature. Following three washes wells were incubated with Streptavidin-HRP for 20 min. Color development was read at 450 nm in a Microplate reader.
(In general: An ELISA detects its analyte on a solid surface through an enzyme-linked reagent.)

Test [2] has as its system IL-6. Description: AGE (G-HSA)-induced inflammatory response determined by IL-6 ELISA in HAEC. To be noted: Homo sapiens; for activity at 10 µM: 24 h, Compds tested @ 10 uM; for IC50: IL6, unit inferred, read-out: IC50 (AGE stimulation of IL6). It is filed as cell-based, human. As for the experimental part:
Human aortic endothelial cells (HAEC, Clonetics) were cultured according to manufacturer in growth medium (Clonetics): basal medium containing human epidermal growth factor, hydrocortisone, vascular endothelial growth factor, heparin binding growth factor-B, long R3-insulin-like growth factor-1, ascorbic acid, gentamicin/amphotericin and 5% FBS. These cell were allowed to reach at least 90% confluency before subjected to experimental treatments. […] Tumor necrosis factor α was from R&D Systems.
All treatments, compound-added and controls were carried out in serum free media containing 0.2% albumin. Media from all conditions were collected and used for IL-6 ELISA.
as §1

[3] abbreviates: Homo sapiens, 24 h, Compds tested @ 10 uM, IL6, read-out: % IL6 production compare to TNF stimulation of IL6 (100%).
[4] abbreviates: IL6, read-out: % IL6 production compare to AGE stimulation of IL6 (100%).

Structures are written as SMILES. Where only a bound is given, the exact number is not on record here.

On to `CCN1CCCC1CNc1nc(NCc2ccccc2)nc(Nc2ccc(OC)c(F)c2)n1` (stereo not drawn) [Compound 53, N^2-benzyl-N^4-[(1-ethyl-2-pyrrolidinyl)methyl]-N^6-(3-fluoro-4-methoxyphenyl)-1,3,5-triazine-2,4,6-triamine], for which the activity at 10 µM in the test on IL-6 [1] (setting [3]) was 1%; in the test with IL-6 [2] (setting [4]) it was 32%.

As for `CCN1CCCC1CNc1nc(Nc2scc(C)c2C(N)=O)nc(NC2CCCCCC2)n1` (stereo not drawn) [Compound 39, 2-[(4-(cycloheptylamino)-6-{[(1-ethyl-2-pyrrolidinyl)methyl]amino}-1,3,5-triazin-2-yl)-amino]-4-methyl-3-thiophenecarboxamide], the activity at 10 µM in the test on IL-6 [2] (setting [4]) came out at 28%.

In the case of `CCN1CCCC1CNc1nc(NC2CCCCCC2)nc(N(CCC#N)c2ccccc2)n1` (stereo not drawn) [Compound 41, 3-[(4-(cycloheptylamino)-6-{[(1-ethyl-2-pyrrolidinyl)methyl]amino}-1,3,5-triazin-2-yl)-(phenyl)amino]propanenitrile], the activity at 10 µM with IL-6 [2] (setting [4]) was found to be 18%.

As to `CCN1CCCC1CNc1nc(Nc2ccc(OC)c(F)c2)nc(N2CCN(C)CC2)n1` (stereo not drawn) [Compound 62, N^2-[(1-ethyl-2-pyrrolidinyl)methyl]-N^4-(3-fluoro-4-methoxyphenyl)-6-(4-methyl-1-piperazinyl)-1,3,5-triazine-2,4-diamine], the activity at 10 µM in the test with IL-6 [2] (setting [4]) amounted to 42%.

Take `CCN1CCCC1CNc1nc(Nc2ccc(F)cc2)nc(NC2CCCCCC2)n1` (stereo not drawn) [Compound 10, N^2-cycloheptyl-N^4-[(1-ethyl-2-pyrrolidinyl)methyl]-N^6-(4-fluorophenyl)-1,3,5-triazine-2,4,6-triamine]: in the test with IL-6 [2] (setting [4]), the activity at 10 µM stood at 1%.

Consider `CCN1CCCC1CNc1nc(NCC(F)(F)F)nc(Nc2ccc(OC)c(F)c2)n1` (stereo not drawn) [Compound 67, N^2-[(1-ethyl-2-pyrrolidinyl)methyl]-N^4-(3-fluoro-4-methoxyphenyl)-N^6-(2,2,2-trifluoroethyl)-1,3,5-triazine-2,4,6-triamine], for which the activity at 10 µM with IL-6 [2] (setting [4]) turned out to be 39%.

As for `CCN1CCCC1CNc1nc(NCCCN2CCCC2=O)nc(Nc2ccc(OC)c(F)c2)n1` (stereo not drawn) [Compound 74, 1-[3-({4-{[(1-ethyl-2-pyrrolidinyl)methyl]amino}-6-[(3-fluoro-4-methoxyphenyl)amino]-1,3,5-triazin-2-yl}amino)propyl]-2-pyrrolidinone], in the test on IL-6 [2] (setting [4]), the activity at 10 µM was 49%.

Turning to `CCN1CCCC1CNc1nc(Nc2ccc(N(C)C)cc2)nc(NC2CCCCCC2)n1` (stereo not drawn) [Compound 25, N^2-cycloheptyl-N^4-[4-(dimethylamino)phenyl]-N^6-[(1-ethyl-2-pyrrolidinyl)methyl]-1,3,5-triazine-2,4,6-triamine], in the test on IL-6 [2] (setting [4]), the activity at 10 µM stood at 1%.

Turning to `CCOc1ccc(Nc2nc(NCC3CCCN3CC)nc(NC3CCCCCC3)n2)cc1` (stereo not drawn) [Compound 32, N^2-cycloheptyl-N^4-(4-ethoxyphenyl)-N^6-[(1-ethyl-2-pyrrolidinyl)methyl]-1,3,5-triazine-2,4,6-triamine], in the test on IL-6 [2] (setting [4]), the activity at 10 µM came out at 1%.

`CCN1CCCC1CNc1nc(Nc2ccc(C#N)cc2)nc(NC2CCCCCC2)n1` (stereo not drawn) [Compound 11, 4-[(4-(cycloheptylamino)-6-{[(1-ethyl-2-pyrrolidinyl)methyl]amino}-1,3,5-triazin-2-yl)-amino]benzonitrile]: the activity at 10 µM in the test with IL-6 [2] (setting [4]) was determined as 1%. For the same compound, the IC50 (as a rule, the concentration needed to halve the response being measured) with IL-6 [2] stood at 8.87 µM.

With `CN1CCC(N(C)c2nc(Nc3ccc4ccccc4c3)nc(NC3CC3)n2)CC1` [Compound 180, N-Cyclopropyl-N′-methyl-N′-(1-methyl-piperidin-4-yl)-N″-naphthalen-2-yl-[1,3,5]triazine-2,4,6-triamine], the activity at 10 µM with IL-6 [2] (read-out: % IL6 production compare to AGE stimulation of IL6 (100%)) is 5%.

With `CCN1CCCC1CNc1nc(NC2CCCCCC2)nc(N(C)c2cccc(Cl)c2)n1` (stereo not drawn) [Compound 45, N^2-(3-chlorophenyl)-N^4-cycloheptyl-N^6-[(1-ethyl-2-pyrrolidinyl)methyl]-N^2-methyl-1,3,5-triazine-2,4,6-triamine], in the test with IL-6 [2] (setting [4]), the activity at 10 µM is 1%.

Take `CCN1CCCC1CNc1nc(NC2CCCCCC2)nc(N(CC#N)c2ccccc2)n1` (stereo not drawn) [Compound 44, [(4-(cycloheptylamino)-6-{[(1-ethyl-2-pyrrolidinyl)methyl]amino}-1,3,5-triazin-2-yl)(phenyl)amino]acetonitrile]: the activity at 10 µM with IL-6 [2] (setting [4]) turned out to be 1%. Further, the 50% inhibitory concentration (IC50) in the test on IL-6 [2] was 7.1 µM.

Regarding `CCN1CCCC1CNc1nc(NC2CCCCCC2)nc(N(C)c2ccc(Cl)cc2)n1` (stereo not drawn) [Compound 40, N^2-(4-chlorophenyl)-N^4-cycloheptyl-N^6-[(1-ethyl-2-pyrrolidinyl)methyl]-N^2-methyl-1,3,5-triazine-2,4,6-triamine], in the test on IL-6 [2] (setting [4]), the activity at 10 µM stood at 19%.

For the compound `CCN1CCCC1CNc1nc(Nc2ccc3c(c2)OCCO3)nc(NC2CCCCCC2)n1` (stereo not drawn) [Compound 24, N^2-cycloheptyl-N^4-(2,3-dihydro-1,4-benzodioxin-6-yl)-N^6-[(1-ethyl-2-pyrrolidinyl)methyl]-1,3,5-triazine-2,4,6-triamine], the activity at 10 µM with IL-6 [2] (setting [4]) is 1%.

Take `CCN1CCCC1CNc1nc(Nc2ccc(N3CCN(C)CC3)cc2)nc(NC2CCCCCC2)n1` (stereo not drawn) [Compound 28, N^2-cycloheptyl-N^4-[(1-ethyl-2-pyrrolidinyl)methyl]-N^6-[4-(4-methyl-1-piperazinyl)phenyl]-1,3,5-triazine-2,4,6-triamine]: the activity at 10 µM in the test on IL-6 [1] (setting [3]) was found to be 23%.

Consider `CCCCN(CCC)c1nc(Nc2ccc(OC)c(Cl)c2)nc(N(C)C2CCN(C)CC2)n1` [Compound 111, N-Butyl-N′-(3-chloro-4-methoxy-phenyl)-N″-methyl-N″-(1-methyl-piperidin-4-yl)-N-propyl-[1,3,5]triazine-2,4,6-triamine], for which, in the test with IL-6 [1] (class of % of control IL6 production), the “Inhibition of TNF-induced IL6 production” value was “+ (between about 75 and 100% of control IL6 production)”. Besides, the activity at 5 µM with IL-6 [1] (Homo sapiens, 24 h, read-out: % IL6 production compare to TNF stimulation of IL6 (100%), @ 5 uM, IL6) is 46%. The activity at 10 µM with IL-6 [1] (Homo sapiens, 24 h, read-out: % IL6 production compare to TNF stimulation of IL6 (100%), Compds tested @ 10 uM, IL6) was more than 90%.

Regarding `c1ccc(Nc2nc(NC3CCCCCC3)nc(N3CCOCC3)n2)cc1` [Compound 176, N-Cycloheptyl-6-morpholin-4-yl-N′-phenyl-[1,3,5]triazine-2,4-diamine], the “% IL6 production compare to TNF stimulation to IL6 (100%)” value in the test on IL-6 [1] (Compds tested @ 10 uM) came out at 33%.

In the case of `CCN1CCCC1CNc1nc(NC2CCCCCC2)nc(N(C)c2ccccc2C(F)(F)F)n1` (stereo not drawn) [Compound 46, N^2-cycloheptyl-N^4-[(1-ethyl-2-pyrrolidinyl)methyl]-N^6-methyl-N^6-[2-(trifluoromethyl)phenyl]-1,3,5-triazine-2,4,6-triamine], in the test with IL-6 [2] (setting [4]), the activity at 10 µM amounted to 3%.

In the case of `CCN1CCCC1CNc1nc(NC2CCCCCC2)nc(N(C)c2ccc(F)cc2F)n1` (stereo not drawn) [Compound 43, N^2-cycloheptyl-N^4-(2,4-difluorophenyl)-N^6-[(1-ethyl-2-pyrrolidinyl)methyl]-N^4-methyl-1,3,5-triazine-2,4,6-triamine], the activity at 10 µM in the test with IL-6 [2] (setting [4]) was 4%.

In the case of `CCN1CCCC1CNc1nc(Nc2ccc3ncccc3c2)nc(NC2CCCCCC2)n1` (stereo not drawn) [Compound 4, N^2-cycloheptyl-N^4-[(1-ethyl-2-pyrrolidinyl)methyl]-N^6-(6-quinolinyl)-1,3,5-triazine-2,4,6-triamine], the activity at 10 µM in the test with IL-6 [2] (setting [4]) was determined as 1%.

With `CCN1CCCC1CNc1nc(Nc2ccc(OC)c(Cl)c2)nc(NC2CCCCCC2)n1` (stereo not drawn) [Compound 48, N^2-(3-chloro-4-methoxyphenyl)-N^4-cycloheptyl-N^6-[(1-ethyl-2-pyrrolidinyl)methyl]-1,3,5-triazine-2,4,6-triamine], in the test on IL-6 [1] (Homo sapiens, IL6, unit inferred, read-out: IC50 (TNF stimulation of IL6)), the half-maximal inhibitory concentration (IC50) was 4.3 µM.

`COc1ccc(Nc2nc(NCc3ccco3)nc(NC3CCCCCC3)n2)cc1F` [Compound 91, N^2-cycloheptyl-N^4-(3-fluoro-4-methoxyphenyl)-N^6-(2-furanylmethyl)-1,3,5-triazine-2,4,6-triamine]: in the test with IL-6 [1] (setting [3]), the activity at 10 µM was found to be 28%.

Take `COc1ccc(Nc2nc(NCCCn3ccnc3)nc(NC3CCCCCC3)n2)cc1F` [Compound 100, N^2-cycloheptyl-N^4-(3-fluoro-4-methoxyphenyl)-N^6-[3-(1H-imidazol-1-yl)propyl]-1,3,5-triazine-2,4,6-triamine]: the activity at 10 µM in the test on IL-6 [2] (setting [4]) came out at 1%.

Consider `CCN1CCC[C@@H]1CNc1nc(NCC2CCCCC2)nc(Nc2ccc(OC)c(F)c2)n1` [Compound 142, N^2-cyclohexylmethyl-N^4-((R)-1-ethyl-pyrrolidin-2-ylmethyl)-N^6-(3-fluoro-4-methoxyphenyl)-1,3,5-triazine-2,4,6-triamine], for which the activity at 10 µM in the test with IL-6 [1] (setting [3]) was determined as 21.6%.
